Experimental data from article PMC7277225, “Structures of FOX-4 Cephamycinase in Complex with Transition-State Analog Inhibitors” (Biomolecules, 2020).

Legend:
[1] = target: T1, FOX-4 cephamycinase (class C β-lactamase) (Escherichia coli, UniProt Q9L387); assay: steady-state kinetics, nitrocefin hydrolysis, […] min pre-incubation; assay type: biochemical; details: read-out: FOX-4 ^1 IC50
T1 construct: native FOX-4, purified from periplasmic fractions of E. coli

[2] = target: T1, FOX-4 cephamycinase (class C β-lactamase); assay: X-ray crystal structure (soak, […] Å); IC50 with purified enzyme by nitrocefin hydrolysis; assay type: biochemical
[3] = target: T1, FOX-4 cephamycinase (class C β-lactamase); assay: biochemical; details: read-out: FOX-4 ^1 IC50

IC50 [1] [nM]	SMILES	also measured
260 ± 20	CO/N=C(\C(=O)NCB(O)O)c1csc(N)n1 [CTX-like]	–
420 ± 20	O=C(Cc1cccs1)N[C@@H](Cc1cccc(C(=O)O)c1)B(O)O [EC04]	–
–	CC(C)(O/N=C(\C(=O)NCB(O)O)c1csc(N)n1)C(=O)O [LP06]	IC50 [2]: 110 ± 20 nM
–	O=C(Cc1cccs1)N[C@H](B(O)O)c1cccc(C(=O)O)c1 [SM23]	IC50 [3]: 32 ± 3 nM
